Results published in patent US6699887B2, “Anti-HIV pyrazole derivatives” (Hoffmann-La Roche Inc., priority 2000, dated 2004).

Assays:
[1] = molecular target: HIV-1 RT (Human immunodeficiency virus type 1 group M subtype B, UniProt P04585); experiment: HIV-1 Reverse Transcriptase Assay: Inhibitor IC50 Determination; type: biochemical; settings: purified recombinant enzyme, poly(rA)/oligo(dT)16 template-primer, 37° C. 30 min
Description: Assay Method: HIV-1 Reverse Transcriptase Assay: Inhibitor IC50 Determination:
HIV-1 RT assay was carried out in 96-well Millipore filtermat NOB50 plates using purified recombinant enzyme and a poly(rA)/oligo(dT)16 template-primer in a total volume of 50 μL. The assay constituents were 50 mM Tris/HCl, 50 mM NaCl, 1 mM EDTA, 6 mM MgCl2, 5 μM dTTP, 0.1 μCi [^3H] dTTP, 5 μg/ml poly (rA) pre annealed to 2.5 μg/ml oligo (dT)16 and a range of inhibitor concentrations in a final concentration of 10% DMSO. Reactions were initiated by adding 5 nM HIV-1 RT and after incubation at 37° C. for 30 min, they were stopped by the addition of 50 μl ice cold 20%TCA and allowed to precipitate at 4° C. for 30 min. The precipitates were collected by applying vacuum to the plate and sequentially washing with 2×200 μl of 10% TCA and 2×200 μl 70% ethanol. Finally the plates were dried and radioactivity counted in a Wallac Microbeta 1450 after the addition of 15 μl scintillation fluid per well. IC50's were calculated by plotting % inhibition versus log10 inhibitor concentrations.

[2] = test system: HXB2-strain of HIV; experiment: Antiviral assay: protection of HIV-infected MT4 cells from cell death (MTT); type: cell-based; settings: Human immunodeficiency virus 1, 120 h; MT4 cells infected with HXB2-strain of HIV, 5 days, MTT viability
Description: Anti-HIV antiviral activity was assessed using an adaptation of the method of Pauwels et al. {Pauwels et al., 1988, J Virol Methods 20:309-321}. The method is based on the ability of compounds to protect HIV-infected T lymphoblastoid cells (MT4 cells) from cell-death mediated by the infection. The endpoint of the assay was calculated as the concentration of compound at which the cell viability of the culture was preserved by 50% (‘50% inhibitory concentration’, IC50). The cell viability of a culture was determined by the uptake of soluble, yellow 3-[4,5-dimethylthiazol-2-yl]-2,5-diphenyltetrazolium bromide (MTT) and its reduction to a purple insoluble formazan salt. After solubilization, spectrophotometric methods were employed to measure the amount of formazan product.
MT4 cells were prepared to be in logarithmic-phase growth and a total of 2×10^6 cells infected with the HXB2-strain of HIV at a multiplicity of 0.0001 infectious units of virus per cell in a total volume of between 200-500 microliters. The cells were incubated with virus for one hour at 37° C. before removal of virus. The cells are then washed in 0.01 M phosphate buffered saline, pH 7.2 before being resuspensed in culture medium for incubation in culture with serial dilutions of test compound. The culture medium used was RPMI 1640 without phenol red, supplemented with penicillin, streptomycin, L-glutamine and 10% fetal calf serum (GM10).
Test compounds were prepared as 2 mM solutions in dimethyl sulphoxide (DMSO). Four replicate, serial 2-fold dilutions in GM10 were then prepared and 50 microliters amounts placed in 96-well plates over a final nanomolar concentration range of 625-1.22. Fifty microliters GM10 and 3.5×10^4 infected cells were then added to each well. Control cultures containing no cells (blank), uninfected cells (100% viability; 4 replicates) and infected cells without compound (total virus-mediated cell death; 4 replicates) were also prepared. The cultures were then incubated at 37° C. in a humidified atmosphere of 5% CO2 in air for 5 days.
A fresh solution of 5 mg/mL MTT was prepared in 0.01 M phosphate buffered saline, pH 7.2 and 20 microliters added to each culture. The cultures were further incubated as before for 2 hours. They were then mixed by pipetting up and down and 170 microliters of Triton X-100 in acidified isopropanol (10% v/v Triton X-100 in 1:250 mixture of concentrated HCl in isopropanol). When the formazan deposit was fully solubilized by further mixing, the absorbance (OD) of the cultures was measured at 540 nm and 690 nm wavelength (690 nm readings were used as blanks for artefacts between wells). The percent protection for each treated culture was then calculated from the equation: [formula]
The IC50 can be obtained from graph plots of percent protection versus log10 drug concentration.

| SMILES | IC50 [1] | IC50 [2] |
| --- | --- | --- |
| Cc1nn(-c2ccccc2)c(Sc2cc(Cl)cc(Cl)c2)c1Cc1ccccc1 | 2060 nM | 403 nM |
| Cc1nn(-c2ccccc2)c(Sc2cc(Cl)cc(Cl)c2)c1CCc1ccccc1 | 3420 nM | 592 nM |
| CCn1nc(COC)c(Cc2ccccc2)c1Sc1cc(Cl)cc(Cl)c1 | 8040 nM | 453 nM |
| Cc1nn(C(C)C)c(Sc2cc(Cl)cc(Cl)c2)c1Cc1ccccc1 | 270 nM | 24 nM |
| Cc1nn(-c2ccccc2)c(Sc2cc(Cl)cc(Cl)c2)c1Cc1ccncc1 | 105 nM | 36 nM |
| CCn1nc(C)c(Cc2ccncc2)c1Sc1cc(Cl)cc(Cl)c1 | 84 nM | 9 nM |
| Cc1nn(C(C)C)c(Sc2cc(Cl)cc(Cl)c2)c1Cc1ccccn1 | 1070 nM | 75 nM |
| Cc1nn(C(C)C)c(Sc2cc(Cl)cc(Cl)c2)c1COCc1ccccc1 | 349 nM | 100 nM |
| Cc1cc(C)cc(Sc2c(Cc3ccccn3)c(C)nn2C(C)C)c1 | 950 nM | 64 nM |
| Cc1nn(C(C)C)c(Sc2cc(Cl)cc(Cl)c2)c1COc1cccnc1 | 313 nM | 110 nM |
| Cc1nn(C(C)C)c(Sc2cc(Cl)cc(Cl)c2)c1COc1cncc(Cl)c1 | 650 nM | 203 nM |
| Cc1nn(C(C)C)c(Sc2cc(Cl)cc(Cl)c2)c1COCc1ccncc1 | 112 nM | 3.6 nM |
| Cc1nn(C(C)C)c(Sc2cc(Cl)cc(Cl)c2)c1Cc1cccnc1 | 572 nM | 14.6 nM |
| Cc1nn(C(C)C)c(Sc2cc(Cl)cc(Cl)c2)c1Cc1ccncc1 | 76 nM | 2.7 nM |
| Cc1nn(C(C)C)c(Sc2cc(Cl)cc(Cl)c2)c1CSc1ccncc1 | 292 nM | 34.1 nM |
| Cc1nn(C(C)C)c(Sc2cc(Cl)cc(Cl)c2)c1Cc1ccncn1 | 456 nM | 13.5 nM |

| SMILES | IC50 [1] | IC50 [2] |
| --- | --- | --- |
| Cc1nn(C(C)C)c(Sc2cc(Cl)cc(Cl)c2)c1COc1ccncc1 | 252 nM | 20 nM |
| Cc1nn(C(C)C)c(Sc2cc(Cl)cc(Cl)c2)c1Cc1ccncc1F | 373 nM | 11.1 nM |
| Cc1nn(C(C)C)c(Sc2cc(Cl)cc(Cl)c2)c1Cc1ccncc1Cl | 177 nM | 51.7 nM |
| CCn1nc(C)c(Cc2cncc(Br)c2)c1Sc1cc(Cl)cc(Cl)c1 | 398 nM | 124 nM |
| Cc1nn(C(C)C)c(Sc2cc(Cl)cc(Cl)c2)c1Cc1ccc(C#N)cc1 | 176 nM | 11.9 nM |
| Cc1nn(C(C)C)c(Sc2cc(Cl)cc(Cl)c2)c1Cc1ccnc(Cl)c1 | 109 nM | 15 nM |
| Cc1cc(Cc2c(C)nn(C(C)C)c2Sc2cc(Cl)cc(Cl)c2)cc(Cl)n1 | 880 nM | 28 nM |
| Cc1nn(C(C)C)c(Sc2cc(Cl)cc(Cl)c2)c1Cc1cnccn1 | 270 nM | 13.9 nM |
| COc1cc(Cl)cc(Sc2c(Cc3ccnc(OC)c3)c(C)nn2C(C)C)c1 | 298 nM | 31.5 nM |
| Cc1nn(C(C)C)c(Sc2cccc(Br)c2)c1Cc1ccncc1Cl | 5200 nM | – |
| Cc1cccc(Sc2c(Cc3ccncc3Cl)c(C)nn2C(C)C)c1 | 1080 nM | – |
| Cc1cc(C)cc(Sc2c(Cc3ccncc3Cl)c(C)nn2C(C)C)c1 | 607 nM | – |
| Cc1nn(C(C)C)c(Sc2cccc(Br)c2)c1Cc1ccncc1F | 463 nM | 19 nM |
| Cc1cccc(Sc2c(Cc3ccncc3F)c(C)nn2C(C)C)c1 | 480 nM | 19 nM |
| Cc1cc(C)cc(Sc2c(Cc3ccncc3F)c(C)nn2C(C)C)c1 | 90 nM | 8.1 nM |
